{"source": "patent US20110070232A1", "about": "“Combination Therapy with an Antitumor Alkaloid” (Pharma Mar, S.A., priority 2008, published 2011)", "key": {"[1]": {"test_system": "HGC-27 human gastric carcinoma cell line", "assay": "IC50 determination, MTS assay, 72 h (Example 1)", "assay_type": "cell-based", "details": "Homo sapiens, 72 hours of drug exposure, read-out: IC50", "protocol": "(§1) The human gastric carcinoma cell lines selected for this assay were the following: Hs746T, HGC-27, and AGS cell lines. Hs746T and AGS cell lines were grown in Dulbecco's modified Eagle's medium (DMEM) supplemented with 10% Fetal Bovine Serum (FBS), 1.5 g/L sodium bicarbonate, 4.5 g/L glucose and 4 mM L-glutamine. HGC-27 cell line was grown in Iscove's modified Dulbecco's medium (IMDM) supplemented with 20% FBS and 2 mM L-glutamine.\n(§2) The day before plating, the cells were fed with fresh, complete growth media. On the harvest (plating) day, cells were counted by Trypan Blue exclusion staining method.\n(§3) Cells were harvested and seeded in 96 well microtiter plates at 10,000 cells density in 150 μL of media and incubated for 24 hours to allow the cells to attach before drug addition. To collect reference data, the MTS assay was done on untreated cells at time 0 (after incubation of cells for 24 hours).\n(§4) The cytotoxic effect was measured by the MTS Assay (Tetrazolium), which is a colorimetric method for determining the number of viable cells. After the incubation period (24 hours for the Day 0 plate and 72 hours for the Test and Control plates), 25 μL of MTS+PMS solution was added to each microtiter well and incubated for 4 hours at 37° C. Plates were then removed from incubator and placed on plate shaker for 5 minutes (covered with aluminum foil for protection from light). Optical densities were read at 490 nm on spectrophotometer plate reader.\n(§5) IC50 values were calculated from an average of two to four assays for each of the test agents."}, "[2]": {"test_system": "Hs746T human gastric carcinoma cell line", "assay": "IC50 determination, MTS assay, 72 h (Example 1)", "assay_type": "cell-based", "details": "Homo sapiens, 72 hours of drug exposure, read-out: IC50", "protocol": "as §1, §2, §3, §4, §5"}, "[3]": {"test_system": "AGS human gastric carcinoma cell line", "assay": "IC50 determination, MTS assay, 72 h (Example 1)", "assay_type": "cell-based", "details": "Homo sapiens, 72 hours of drug exposure, read-out: IC50", "protocol": "as §1, §2, §3, §4, §5"}, "Hs746T tumors": {"test_system": "Hs746T tumors", "assay_type": "in vivo, mice", "details": "for % Inhibition: PM00104 0.9 and doxorubicin 6 mg/kg/day", "excerpt": "Female athymic nude mice (Harlan Sprague Dawley, Madison, Wis.) were utilized for all experiments. Animals were housed in ventilated rack caging with food and water ad libitum. The mice were acclimated for at least 5 days prior to tumor implantation with a tumor cell suspension.\nThe tumor model used in these studies was Hs746T cell line, which was obtained from the ATCC (Manassas, Va.).\nTreatments were initiated on DPI 15.\n5-FU was provided as a solution which was further diluted with water for injection.\n(§6) Tumor size measurements were recorded twice weekly from the treatment initiation until the termination of the study.\n(§7) Mean, standard deviation and standard error of the mean were determined for tumor volume for all animal groups at all assessments. Student's t test was performed on tumor volumes at each measurement day, including at the end of the study, to determine whether there were any statistically significant differences between combination treatment groups and single monotherapy treatment groups."}, "MRI-H-254 tumors": {"test_system": "MRI-H-254 tumors", "assay_type": "in vivo, mice", "protocol": "Female athymic nude mice (Harlan Sprague Dawley, Madison, Wis.) were utilized for all experiments. Animals were housed in ventilated rack caging with food and water ad libitum. The mice were acclimated for at least 5 days prior to tumor implantation with tumor fragments. The Vehicle Control group contained 11 mice, groups 2-6 contained 8 mice/group, and the rest of groups contained 9 mice/group.\nThis cell line was grown and implanted to the animals as described in Example 11.\nTumor measurements were determined as disclosed in Example 4. […] Treatments were initiated on DPI 17.\nPM00104 was provided in the form of vials of lyophilized PM00104 powder which was reconstituted with water for injection.\nas §6, §7\nThe definition and criteria for the evaluation of potentiation and the degree of additivity for the combination therapy were the same as those disclose in Example 4."}, "[4]": {"test_system": "MCF-7 (breast cancer) cell line", "assay": "IC50 determination, MIT (tetrazolium) assay, 72 h (Example 18)", "assay_type": "cell-based", "details": "Homo sapiens, MCF7; MCF-7, 72 hours of drug exposure", "protocol": "(§8) Before plating, cell cultures were trypsinized and cell number estimated using an automated flow cytometer.\n(§9) Cells were harvested and seeded in 96 well microtiter plates at the appropriate cell density (5,000-10,000 cells) in 150 μL of media and incubated for 24 hours to allow the cells to attach before drug addition.\n(§10) After the incubation period (72 hours), 50 μL of MIT solution was added to each microtiter well and incubated for further 8 hours at 37° C. The culture medium was then removed and 50 μl, of DMSO were added to dissolve the MIT crystals. Optical densities were read at 540 nm on spectrophotometer microplate reader.\nas §5"}, "[5]": {"test_system": "MDA-MB-231 (breast cancer) cell line", "assay": "IC50 determination, MIT (tetrazolium) assay, 72 h (Example 18)", "assay_type": "cell-based", "details": "Homo sapiens; MDA-MB-231, 72 hours of drug exposure", "protocol": "as §8, §9, §10, §5"}, "[6]": {"details": "PM00104 0.9, 5-FU 50 (DPI 15) then 100 (DPI 22 & 29), irinotecan 20, doxorubicin 6 mg/kg/day"}, "[7]": {"details": "PM00104 0.90 IV, doxorubicin 6 IP, paclitaxel 12.5 IP mg/kg/day (G2, G5, G6, G7, G8)"}}, "note": "pIC50: −log10 of the molar value. Read-outs that look alike come from different tables or passages of the source."}
{"smiles": "COc1cccc2c1C(=O)c1c(O)c3c(c(O)c1C2=O)C[C@@](O)(C(=O)CO)C[C@@H]3O[C@H]1C[C@H](N)[C@H](O)[C@H](C)O1", "note": "[Doxorubicin, doxorubicin]", "values": [{"measurement": "IC50", "setting": "[1]", "result": 0.177, "unit": "µg/mL"}, {"measurement": "IC50", "setting": "[2]", "result": 8.97, "unit": "µg/mL"}, {"measurement": "IC50", "setting": "[3]", "result": 0.156, "unit": "µg/mL"}, {"measurement": "% T/C on day 15", "setting": "Hs746T tumors; [6]", "result": 104.2, "unit": "%"}, {"measurement": "% T/C on day 19", "setting": "Hs746T tumors; [6]", "result": 79.8, "unit": "%"}, {"measurement": "% T/C on day 26", "setting": "Hs746T tumors; [6]", "result": 48.9, "unit": "%"}, {"measurement": "% T/C on day 29", "setting": "Hs746T tumors; [6]", "result": 40.2, "unit": "%"}, {"measurement": "% T/C on day 33", "setting": "Hs746T tumors; [6]", "result": 51.4, "unit": "%"}, {"measurement": "% Inhibition", "setting": "Hs746T tumors; day 15", "result": "−4.2", "unit": "%"}, {"measurement": "% Inhibition", "setting": "Hs746T tumors; day 19", "result": 20.2, "unit": "%"}, {"measurement": "% Inhibition", "setting": "Hs746T tumors; day 22", "result": 52.6, "unit": "%"}, {"measurement": "% Inhibition", "setting": "Hs746T tumors; day 26", "result": 51.1, "unit": "%"}, {"measurement": "% Inhibition", "setting": "Hs746T tumors; day 29", "result": 59.8, "unit": "%"}, {"measurement": "% Inhibition", "setting": "Hs746T tumors; day 33", "result": 48.6, "unit": "%"}, {"measurement": "% T/C on day 17", "setting": "MRI-H-254 tumors; [7]", "result": 98.2, "unit": "%"}, {"measurement": "% T/C on day 20", "setting": "MRI-H-254 tumors; [7]", "result": 93.5, "unit": "%"}, {"measurement": "% T/C on day 24", "setting": "MRI-H-254 tumors; [7]", "result": 76.2, "unit": "%"}, {"measurement": "% T/C on day 27", "setting": "MRI-H-254 tumors; [7]", "result": 64.4, "unit": "%"}, {"measurement": "% T/C on day 32", "setting": "MRI-H-254 tumors; [7]", "result": 56.3, "unit": "%"}, {"measurement": "% T/C on day 35", "setting": "MRI-H-254 tumors; [7]", "result": 24.8, "unit": "%"}, {"measurement": "% T/C on day 39", "setting": "MRI-H-254 tumors; [7]", "result": 19.7, "unit": "%"}, {"measurement": "% T/C on day 47", "setting": "MRI-H-254 tumors; [7]", "result": 15.7, "unit": "%"}, {"measurement": "% Inhibition", "setting": "MRI-H-254 tumors; day 14, PM00104 0.23, doxorubicin 6, paclitaxel 12.5 mg/kg/day", "result": 1.8, "unit": "%"}, {"measurement": "% Inhibition", "setting": "MRI-H-254 tumors; day 14, PM00104 0.45, doxorubicin 6, paclitaxel 12.5 mg/kg/day", "result": 1.8, "unit": "%"}, {"measurement": "% Inhibition", "setting": "MRI-H-254 tumors; day 14, PM00104 0.9 and doxorubicin 6 mg/kg/day", "result": 1.8, "unit": "%"}, {"measurement": "% Inhibition", "setting": "MRI-H-254 tumors; day 20, PM00104 0.23, doxorubicin 6, paclitaxel 12.5 mg/kg/day", "result": 6.5, "unit": "%"}, {"measurement": "% Inhibition", "setting": "MRI-H-254 tumors; day 20, PM00104 0.45, doxorubicin 6, paclitaxel 12.5 mg/kg/day", "result": 6.5, "unit": "%"}, {"measurement": "% Inhibition", "setting": "MRI-H-254 tumors; day 20, PM00104 0.9 and doxorubicin 6 mg/kg/day", "result": 6.5, "unit": "%"}, {"measurement": "% Inhibition", "setting": "MRI-H-254 tumors; day 24, PM00104 0.23, doxorubicin 6, paclitaxel 12.5 mg/kg/day", "result": 23.8, "unit": "%"}, {"measurement": "% Inhibition", "setting": "MRI-H-254 tumors; day 24, PM00104 0.45, doxorubicin 6, paclitaxel 12.5 mg/kg/day", "result": 23.8, "unit": "%"}, {"measurement": "% Inhibition", "setting": "MRI-H-254 tumors; day 24, PM00104 0.9 and doxorubicin 6 mg/kg/day", "result": 23.8, "unit": "%"}, {"measurement": "% Inhibition", "setting": "MRI-H-254 tumors; day 27, PM00104 0.23, doxorubicin 6, paclitaxel 12.5 mg/kg/day", "result": 35.6, "unit": "%"}, {"measurement": "% Inhibition", "setting": "MRI-H-254 tumors; day 27, PM00104 0.45, doxorubicin 6, paclitaxel 12.5 mg/kg/day", "result": 35.6, "unit": "%"}, {"measurement": "% Inhibition", "setting": "MRI-H-254 tumors; day 27, PM00104 0.9 and doxorubicin 6 mg/kg/day", "result": 35.6, "unit": "%"}, {"measurement": "% Inhibition", "setting": "MRI-H-254 tumors; day 32, PM00104 0.23, doxorubicin 6, paclitaxel 12.5 mg/kg/day", "result": 43.7, "unit": "%"}, {"measurement": "% Inhibition", "setting": "MRI-H-254 tumors; day 32, PM00104 0.45, doxorubicin 6, paclitaxel 12.5 mg/kg/day", "result": 43.7, "unit": "%"}, {"measurement": "% Inhibition", "setting": "MRI-H-254 tumors; day 32, PM00104 0.9 and doxorubicin 6 mg/kg/day", "result": 43.7, "unit": "%"}, {"measurement": "% Inhibition", "setting": "MRI-H-254 tumors; day 35, PM00104 0.23, doxorubicin 6, paclitaxel 12.5 mg/kg/day", "result": 75.2, "unit": "%"}, {"measurement": "% Inhibition", "setting": "MRI-H-254 tumors; day 35, PM00104 0.45, doxorubicin 6, paclitaxel 12.5 mg/kg/day", "result": 75.2, "unit": "%"}, {"measurement": "% Inhibition", "setting": "MRI-H-254 tumors; day 35, PM00104 0.9 and doxorubicin 6 mg/kg/day", "result": 75.2, "unit": "%"}, {"measurement": "% Inhibition", "setting": "MRI-H-254 tumors; day 39, PM00104 0.23, doxorubicin 6, paclitaxel 12.5 mg/kg/day", "result": 80.3, "unit": "%"}, {"measurement": "% Inhibition", "setting": "MRI-H-254 tumors; day 39, PM00104 0.45, doxorubicin 6, paclitaxel 12.5 mg/kg/day", "result": 80.3, "unit": "%"}, {"measurement": "% Inhibition", "setting": "MRI-H-254 tumors; day 39, PM00104 0.9 and doxorubicin 6 mg/kg/day", "result": 80.3, "unit": "%"}, {"measurement": "% Inhibition", "setting": "MRI-H-254 tumors; day 47, PM00104 0.23, doxorubicin 6, paclitaxel 12.5 mg/kg/day", "result": 84.3, "unit": "%"}, {"measurement": "% Inhibition", "setting": "MRI-H-254 tumors; day 47, PM00104 0.9 and doxorubicin 6 mg/kg/day", "result": 84.3, "unit": "%"}, {"measurement": "pIC50", "setting": "[4]", "result": 5.40}, {"measurement": "pIC50", "setting": "[5]", "result": 5.72}]}
